Marks after values point to notes of the source that are not given here.
Columns and labels:
[1] = system: mice with APAP-induced liver injury; assay: Acetaminophen (APAP)-induced liver injury in mouse; assay type: in vivo; details: for Hepatic GSH (μM/g liver tissue) / ALT (U/L): then APAP 500 mg/kg; for ALT (U/L): serum, vehicle 786 ± 111; for Liver morphology by H&E staining (FIG. 1): 10 mg/kg (Tschimganine 20 mg/kg) i.p. five days, then APAP, compared to severe liver injury in control group; for expression levels of GPX1 and UGT1α1 in liver: mRNA by RT-PCR; for expression levels of GPX1 and UGT1α1 in liver / activities of serum AST, ALT and LDH: vs vehicle control group, Table 5 (not given)
From the text: Methods: Acetaminophen (APAP)-induced liver injury in mouse is a commonly used model to study drugs protecting liver. Overdose of APAP causes liver injury by inducing the production of reactive oxygen species and reactive nitrogen species, and excessive consumption of reductive substances such as antioxidant glutathione (GSH), leading to the reduction of GSH in vivo, and the following upregulation of the activities of the aspartate aminotransferase (AST), the alanine aminotransferase (ALT) and the lactate dehydrogenase (LDH), which will result in liver inflammation and necrosis. In this example, the APAP-induced liver injury was used to detect the protection and repair functions of our compounds in liver injury.
One-year or 8-week age mice were maintained under environmentally controlled conditions with free access to standard chow diet and water. Animal experiments were conducted in the barrier facility of the Laboratory Animal Center, Xiamen University, approved by the Institutional Animal Use and Care Committee of Xiamen University, China.
Compounds were solved with DMSO and then prepared to work concentration with 40% HBC (2-hydroxypropyl-β-cyclodextrin) in which the final work concentrations of compounds are 5 mg/kg body weight, 10 mg/kg or 20 mg/kg in 100 μl injection volume and the concentration of DMSO is 10%. Compounds were intraperitoneal (i.p.) injected once daily for five days. For Feroline and Tschimganine, one-year age mice were used in the experiment. For other compounds, 8-week age mice were used. […] For Tschimganine, 20 mg/kg dose of compound was administered to mice. For other compounds, 5 mg/kg dose of compounds were administered to mice. Six hours after the fifth injection, 500 mg/kg body weight of APAP solved in PBS was i.p. injected to the mice. 24 hours later, mice were sacrificed. Part of each liver was fixed in 4% paraformaldehyde, and the liver histology characterization was analyzed by haematoxylin and eosin (H&E) staining with paraffin-embedded sections by standard procedures. Other liver tissues were collected for detecting the GSH levels, and the mRNA expression of genes involved in liver repairing, such as GPX1 and UGT1a1, by RT-PCR. The serums were collected to measure enzymes activities including AST, ALT and LDH. For the synthetic derivatives, ALT and GSH were selected as indicating markers for the function of these compounds.

[2] = system: inflammatory cytokines in tissues of db/db mice; assay: Inflammatory cytokine mRNA levels in tissues of high-fat diet fed db/db mice (RT-PCR); assay type: in vivo, mouse; details: 5 mg/kg; for WAT, mRNA level (fold), IL-1β / WAT, mRNA level (fold), TNFα: white adipose tissue; for WAT, mRNA level (fold), IL-1β: vehicle 1.06 ± 0.2; for WAT, mRNA level (fold), TNFα: vehicle 1.15 ± 0.13; for mRNA level of iNOS (fold), Liver tissue: vehicle 1.06 ± 0.14; for mRNA level of iNOS (fold), Colon tissue: vehicle 1.12 ± 0.23
From the text: In this example, we detected the levels of various inflammatory cytokines including iNOS, IFNγ, TGFβ, TNFα, COX2, IL-1β, IL-6, SAA1, MIP-1α and CD36 in liver, kidney, white adipose tissue (WAT) in various mice models, including wild type mice treated with APAP in example 4, high-fat diet fed diabetic and obesity db/db and KK-Ay mice in example 5, high-fat diet fed wild-type mice in Example 5, as well as in primary hepatocytes with LPS induced inflammation, using RT-PCR.

db/db mice = assay: Serum/blood metabolic parameters in high-fat diet fed db/db mice; assay type: in vivo, mouse
Method in brief: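 db/db mice aged 8–10 weeks on high-fat diet received compounds i.p. once daily for 7, 10, 11 or 14 days, then were fasted 6 h and sacrificed. Serum glucose (glucose oxidase), insulin (ELISA), cholesterol, FFA and triglycerides measured by kits; some blood glucose by tail strips after the 6th injection and 16 h fast.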

[3] = system: collagen related genes in mice livers; assay: Liver mRNA levels of collagen related genes in mice of Example 5 (RT-PCR); assay type: in vivo, mouse; details: 10 mg/kg; for Relative mRNA level of α-SMA: vehicle 1 ± 0.1; for Relative mRNA level of α1(I) collagen: vehicle 1.1 ± 0.2
From the text: NAFLD with excessive fat accumulation in liver will affect the blood and oxygen supplies to liver and the metabolism of liver organ, resulting in amounts of cell swelling, inflammatory infiltration and necrosis in liver. […] The levels of various collagen contents are higher in patients with liver cirrhosis. Masson's staining is a three-color staining protocol used in histology. It is widely used to study hepatic pathologies (cirrhosis). It's an authoritative and classic method to detect the existence and extend of accumulation of the collagen fiber. Sirius Red staining is also presented as a method for collagen determination. In this example, the Masson's staining and […] were performed to detect the collagen deposit in high fat diet fed db/db mice in Example 5. The Masson's staining kit (Nanjing Jiancheng Engineering Institute, China) was used for the staining of liver sections in Example 5. The Sirius red staining is performed as standard procedure. RT-PCR was used detect the expression of collagen and related genes such as α1(I) collagen, α2(I)collagen, α-SMA and MCP-1 in mice livers.

[4] = 5 mg/kg i.p. once daily for five days, 8-week age mice, vehicle 9.1 ± 0.5
[5] = 5 mg/kg i.p. once daily for five days, 8-week age mice
[6] = 10 mg/kg, treat for 10 days, vehicle 527 ± 63

Nc1ccc(C(=O)OC2CCCCCC2)cc1 [XD-12, cycloheptyl 4-aminobenzoate]
Hepatic GSH (μM/g liver tissue) [1, 4]: 12.5 ± 0.7 ^a μM/g liver tissue

CC1(C)C2CCC1(C)C(OC(=O)c1ccc(N)cc1)C2 (stereo not drawn) [XD-5, 1,7,7-trimethyl-bicyclo[2.2.1]-heptan-2-yl 4-aminobenzoate]
ALT (U/L) [1, 5]: 197 ± 57 ^b U/L | Hepatic GSH (μM/g liver tissue) [1, 4]: 12.8 ± 0.3 ^b μM/g liver tissue | WAT, mRNA level (fold), IL-1β [2]: 0.33 ± 0.2^a fold | WAT, mRNA level (fold), TNFα [2]: 0.56 ± 0.17^a fold

Cc1cc(C(=O)OC2CCC3CCCCC3C2)ccc1O (stereo not drawn) [XD-29, decahydro-naphthalen-2-yl 4-hydroxy-3-methylbenzoate]
ALT (U/L) [1, 5]: 118 ± 31 ^c U/L

COc1cc(C(=O)OC2CCC3CCCCC3C2)ccc1O (stereo not drawn) [XD-30, decahydro-naphthalen-2-yl 4-hydroxy-3-methoxybenzoate]
Serum Glucose (mg/dl) (db/db mice; [6]): 400 ± 51^a mg/dl | ALT (U/L) [1, 5]: 107 ± 41 ^b U/L

O=C(OC1CCCCCCC1)c1ccc(O)cc1 [XD-10, cyclooctyl 4-hydroxybenzoate]
ALT (U/L) [1, 5]: 114 ± 31 ^c U/L | mRNA level of iNOS (fold), Liver tissue [2]: 0.52 ± 0.3^a fold | mRNA level of iNOS (fold), Colon tissue [2]: 0.49 ± 0.21^a fold

CC1(C)C2CCC1(C)C(OC(=O)c1ccc(=O)oc1)C2 (stereo not drawn) [XD-9, 1,7,7-trimethyl-bicyclo[2.2.1]-heptan-2-yl 6-oxo-6H-pyran-3-carboxylate]
Serum Glucose (mg/dl) (db/db mice; [6]): 399 ± 41^a mg/dl

O=C(OC1CCCCCCCCCCC1)c1ccc(O)cc1 [XD-11, cyclododecyl 4-hydroxybenzoate]
Hepatic GSH (μM/g liver tissue) [1, 4]: 12.6 ± 0.4 ^b μM/g liver tissue

COc1cc(C(=O)O[C@H]2C[C@H]3CC[C@]2(C)C3(C)C)ccc1O [Tschimganine]
Serum Insulin (ng/ml) (db/db mice; 10 mg/kg for 7 days, vehicle 12 ± 3): 4.7 ± 0.4^b ng/ml | Serum Glucose (mg/dl) (db/db mice; 10 mg/kg for 7 days, vehicle 521 ± 54): 342 ± 36^a mg/dl | Liver morphology by H&E staining (FIG. 1) [1]: almost normal liver morphology | Hepatic GSH (μM/g liver tissue) ([1]; 20 mg/kg i.p. once daily for five days, one-year age mice, vehicle 8.0 ± 2.8): 14.9 ± 0.6^b μM/g liver tissue | expression levels of GPX1 and UGT1α1 in liver [1]: significantly upregulated | activities of serum AST, ALT and LDH [1]: dramatically lower | Relative mRNA level of α-SMA [3]: 0.56 ± 0.12^a | Relative mRNA level of α1(I) collagen [3]: 0.6 ± 0.12^a | Relative mRNA level of MCP-1 ([3]; vehicle 1.2 ± 0.2): 0.62 ± 0.13^a

Cc1cc(C(=O)OC2CCC3CCCCC3C2)ccc1[N+](=O)[O-] (stereo not drawn) [XD-35, decahydro-naphthalen-2-yl 3-methyl-4-nitro-benzoate]
Serum Glucose (mg/dl) (db/db mice; [6]): 337 ± 67^a mg/dl | Hepatic GSH (μM/g liver tissue) [1, 4]: 12.6 ± 1.6 ^a μM/g liver tissue

C/C1=C\CCC(C)(O)/C=C/C(C(C)C)C(OC(=O)c2ccc(O)cc2)C1 (stereo not drawn) [Feroline]
Liver morphology by H&E staining (FIG. 1) [1]: almost normal liver morphology | Hepatic GSH (μM/g liver tissue) ([1]; 10 mg/kg i.p. once daily for five days, one-year age mice, vehicle 8.0 ± 2.8): 14.2 ± 1.6^b μM/g liver tissue | expression levels of GPX1 and UGT1α1 in liver [1]: significantly upregulated | activities of serum AST, ALT and LDH [1]: dramatically lower | Relative mRNA level of α-SMA [3]: 0.73 ± 0.06^a | Relative mRNA level of α2(I) collagen ([3]; vehicle 1.1 ± 0.1): 0.6 ± 0.06^a | Relative mRNA level of α1(I) collagen [3]: 0.37 ± 0.1^a

CC1(C)C2CCC1(C)C(OC(=O)c1ccc(=O)[nH]c1)C2 (stereo not drawn) [XD-8, 1,7,7-trimethyl-bicyclo[2.2.1]-heptan-2-yl 6-oxo-1,6-dihydropyridine-3-carboxylate]
ALT (U/L) [1, 5]: 115 ± 38 ^c U/L

O=C(OC1CCC2CCCCC2C1)c1ccc(O)cc1 (stereo not drawn) [XD-28, decahydro-naphthalen-2-yl 4-hydroxy-benzoate]
ALT (U/L) [1, 5]: 114 ± 25 ^c U/L

CC1(C)C2CCC1(C)C(OC(=O)c1ccncc1)C2 (stereo not drawn) [XD-6, 1,7,7-trimethyl-bicyclo[2.2.1]-heptan-2-yl isonicotinate]
ALT (U/L) [1, 5]: 109 ± 26 ^c U/L

CC1(C)C2CCC1(C)C(OC(=O)C1CCC(O)CC1)C2 (stereo not drawn) [XD-20, 1,7,7-trimethyl-bicyclo[2.2.1]-heptan-2-yl 4-hydroxy-cyclohexane-carboxylate]
Serum Glucose (mg/dl) (db/db mice; [6]): 396 ± 55^a mg/dl | mRNA level of iNOS (fold), Liver tissue [2]: 0.51 ± 0.2^a fold | mRNA level of iNOS (fold), Colon tissue [2]: 0.5 ± 0.18^a fold

Nc1ccc(C(=O)OC2CCC3CCCCC3C2)cc1 (stereo not drawn) [XD-23, decahydro-naphthalen-2-yl 4-aminobenzoate]
ALT (U/L) [1, 5]: 130 ± 62 ^a U/L | mRNA level of iNOS (fold), Liver tissue [2]: 0.2 ± 0.1^a fold | mRNA level of iNOS (fold), Colon tissue [2]: 0.55 ± 0.29^a fold | WAT, mRNA level (fold), IL-1β [2]: 0.64 ± 0.13^a fold | WAT, mRNA level (fold), TNFα [2]: 0.6 ± 0.21^a fold

COc1cc(C(=O)OC2C/C(C)=C/CC/C(C)=C/[C@@H](O)[C@H]2C(C)C)ccc1O (stereo partly drawn) [Tschimganidine]
Liver morphology by H&E staining (FIG. 1) [1]: almost normal liver morphology | expression levels of GPX1 and UGT1α1 in liver [1]: significantly upregulated | activities of serum AST, ALT and LDH [1]: dramatically lower

CC1(C)C2CCC1(C)C(OC(=O)c1ccc(F)cc1)C2 (stereo not drawn) [XD-0, 1,7,7-trimethyl-bicyclo[2.2.1]-heptan-2-yl 4-fluorobenzoate]
Serum Glucose (mg/dl) (db/db mice; [6]): 223 ± 33^b mg/dl | Hepatic GSH (μM/g liver tissue) [1, 4]: 15.0 ± 0.5 ^b μM/g liver tissue

COc1cc(C(=O)OC2CCCCCCC2)ccc1O [XD-18, cyclooctyl 4-hydroxy-3-methoxybenzoate]
ALT (U/L) [1, 5]: 135 ± 48 ^a U/L

COc1cc(C(=O)OC2CCC3CCCCC3C2)ccc1[N+](=O)[O-] (stereo not drawn) [XD-36, decahydro-naphthalen-2-yl 3-methoxy-4-nitrobenzoate]
Serum Glucose (mg/dl) (db/db mice; [6]): 366 ± 65^a mg/dl | Hepatic GSH (μM/g liver tissue) [1, 4]: 14.8 ± 0.3 ^b μM/g liver tissue

CC1(C)C2CCC1(C)C(OC(=O)c1ccc(F)c(Br)c1)C2 (stereo not drawn) [XD-13, 1,7,7-trimethyl-bicyclo[2.2.1]-heptan-2-yl 3-bromo-4-fluoro-benzoate]
Hepatic GSH (μM/g liver tissue) [1, 4]: 13.7 ± 0.9 ^a μM/g liver tissue

From US20180116993A1, “MODULATORS OF FARNESOID X RECEPTOR AND METHODS FOR THE USE THEREOF” (XIAMEN UNIVERSITY, priority 2015, published 2018)
